System: E. coli (ATCC 25922)
Assay: Evaluation of antibacterial property against E. coli (absorbance at 600 nm)
Assay type: cell-based, Escherichia coli
Conditions: injection amount of compound 0.01 g in 25 mL nutrient broth with E. coli ATCC 25922 at 3000 CFU/mL; 16 hours at 35° C.; absorbance at 600 nm vs pure culture medium
Protocol: [formula] • in the equation, • As(Asample) represents absorbance of the culture medium containing the bacteriostatic substance at a wavelength of 600 nm, and • A0(Areference) represents absorbance of the pure culture medium without the bacteriostatic substance at a wavelength of 600 nm.
(1) Evaluation of Antibacterial Property Against E. coli
25 mL of a nutrient broth culture medium inoculated with E. coli (ATCC 25922) at 3000 CFU/mL was transferred to a 50 ml conical tube, and then the antibacterial compounds (bacteriostatic substances) prepared in Preparation Examples and Comparative Preparation Examples were injected in each amount described in Table 2 below, followed by sufficiently mixing. Thereafter, incubation was performed for 16 hours in a shaking incubator (Visiontech, VS-37SIF) maintained at 35° C.
The incubated solution was diluted to ⅕ using 1×PBS buffer solution, and absorbance at the wavelength of 600 nm was measured for the diluted solution using a UV-Vis Spectrophotometer (K Lab, Optizen POP). In addition, E. coli (ATCC 25922) was cultured in a pure culture medium without the antibacterial compound for 16 hours in a shaking incubator (VISION TECH, VS-37SIF) maintained at 35° C., which was prepared as a control, and absorbance at the wavelength of 600 nm was measured in the same manner as above.
Then, antibacterial rates (%) of E. coli (ATCC 25922) were calculated according to the following Equation 1, and the results are shown in Table 2 below.
[formula] • in the equation, • As(Asample) represents absorbance of the culture medium containing the bacteriostatic substance at a wavelength of 600 nm, and • A0(Areference) represents absorbance of the E. coli pure culture medium without the bacteriostatic substance at a wavelength of 600 nm.

Row | Structure (SMILES) | Antibacterial rate (%)
1 | C=C(C)C(=O)OCC[N+](C)(C)CCCCCCCCCC [Compound 1] | 95.3%
2 | C=C(C)C(=O)OCC[N+](C)(C)CCCCCCCCCCCC [Compound 2] | 98.1%
3 | C=CC(=O)OCC[N+](C)(C)CCCCCCCCCCCC [Compound 3] | 97.3%
4 | C=CC(=O)OCC[N+](C)(C)CCCCCCCCCC [Compound 5] | 95.8%
5 | C=CC(=O)OCC[N+](C)(C)CCCCCCCC [Compound 6] | 70.6%
6 | C=C(C)C(=O)OCC[N+](C)(C)CCCCCCCC [Compound B, reference compound] | 69.2%
7 | C=CC(=O)OCC[N+](C)(C)CCCCCCCC [Compound E, reference compound] | 62.3%
